Assay results from PubChem BioAssay AID1259407 (Chemical Carcinogenesis Research Information System (CCRIS), 2018).
Calls of active or inactive are those of the source. No rule for the calls is given here.

Test system: CCRIS mutagenicity, Ames/micronucleus/aberration tests
Test: CCRIS mutagenicity studies

Measured: mutagenic call

CCC[C@]1(O)CC[C@H]2[C@@H]3CC[C@H]4CC(=O)C[C@H](C)[C@]4(C)[C@H]3CC[C@@]21C
inactive: End Point: IN VITRO CHROMOSOMAL ABERRATIONS, Test System: HUMAN PERIPHERAL LYMPHOCYTES, Metabolic Activation: NONE inactive; negative | End Point: IN VITRO CHROMOSOMAL ABERRATIONS, Test System: HUMAN PERIPHERAL LYMPHOCYTES, Metabolic Activation: RAT, LIVER, S-9, AROCLOR 1254 inactive; negative | End Point: IN VIVO MICRONUCLEUS, Test System: BONE MARROW POLYCHROMATIC ERYTHROCYTES, Species: MOUSE, Strain/Sex: NMRI/MALE, FEMALE, Route: SUBCUTANEOUS INJECTION inactive; negative | Test System: AMES SALMONELLA TYPHIMURIUM, Strain/Indicator: TA98, Metabolic Activation: NONE, Method: PREINCUBATION inactive; negative | Test System: AMES SALMONELLA TYPHIMURIUM, Strain/Indicator: TA98, Metabolic Activation: NONE, Method: STANDARD PLATE inactive; negative | Test System: AMES SALMONELLA TYPHIMURIUM, Strain/Indicator: TA98, Metabolic Activation: RAT, LIVER, S-9, AROCLOR 1254, Method: PREINCUBATION inactive; negative | Test System: AMES SALMONELLA TYPHIMURIUM, Strain/Indicator: TA98, Metabolic Activation: RAT, LIVER, S-9, AROCLOR 1254, Method: STANDARD PLATE inactive; negative | Test System: AMES SALMONELLA TYPHIMURIUM, Strain/Indicator: TA100, Metabolic Activation: NONE, Method: PREINCUBATION inactive; negative | Test System: AMES SALMONELLA TYPHIMURIUM, Strain/Indicator: TA100, Metabolic Activation: NONE, Method: STANDARD PLATE inactive; negative | Test System: AMES SALMONELLA TYPHIMURIUM, Strain/Indicator: TA100, Metabolic Activation: RAT, LIVER, S-9, AROCLOR 1254, Method: PREINCUBATION inactive; negative | Test System: AMES SALMONELLA TYPHIMURIUM, Strain/Indicator: TA100, Metabolic Activation: RAT, LIVER, S-9, AROCLOR 1254, Method: STANDARD PLATE inactive; negative | Test System: AMES SALMONELLA TYPHIMURIUM, Strain/Indicator: TA1535, Metabolic Activation: NONE, Method: PREINCUBATION inactive; negative | Test System: AMES SALMONELLA TYPHIMURIUM, Strain/Indicator: TA1535, Metabolic Activation: NONE, Method: STANDARD PLATE inactive; negative | Test System: AMES SALMONELLA TYPHIMURIUM, Strain/Indicator: TA1535, Metabolic Activation: RAT, LIVER, S-9, AROCLOR 1254, Method: PREINCUBATION inactive; negative | Test System: AMES SALMONELLA TYPHIMURIUM, Strain/Indicator: TA1535, Metabolic Activation: RAT, LIVER, S-9, AROCLOR 1254, Method: STANDARD PLATE inactive; negative | Test System: AMES SALMONELLA TYPHIMURIUM, Strain/Indicator: TA1537, Metabolic Activation: NONE, Method: PREINCUBATION inactive; negative | Test System: AMES SALMONELLA TYPHIMURIUM, Strain/Indicator: TA1537, Metabolic Activation: NONE, Method: STANDARD PLATE inactive; negative | Test System: AMES SALMONELLA TYPHIMURIUM, Strain/Indicator: TA1537, Metabolic Activation: RAT, LIVER, S-9, AROCLOR 1254, Method: PREINCUBATION inactive; negative | Test System: AMES SALMONELLA TYPHIMURIUM, Strain/Indicator: TA1537, Metabolic Activation: RAT, LIVER, S-9, AROCLOR 1254, Method: STANDARD PLATE inactive; negative | Test System: AMES SALMONELLA TYPHIMURIUM, Strain/Indicator: TA1538, Metabolic Activation: NONE, Method: PREINCUBATION inactive; negative | Test System: AMES SALMONELLA TYPHIMURIUM, Strain/Indicator: TA1538, Metabolic Activation: NONE, Method: STANDARD PLATE inactive; negative | Test System: AMES SALMONELLA TYPHIMURIUM, Strain/Indicator: TA1538, Metabolic Activation: RAT, LIVER, S-9, AROCLOR 1254, Method: PREINCUBATION inactive; negative | Test System: AMES SALMONELLA TYPHIMURIUM, Strain/Indicator: TA1538, Metabolic Activation: RAT, LIVER, S-9, AROCLOR 1254, Method: STANDARD PLATE inactive; negative | Test System: CHINESE HAMSTER V-79, Strain/Indicator: V-79 (HGPRT)/6-THIOGUANINE, Metabolic Activation: NONE inactive; negative | Test System: CHINESE HAMSTER V-79, Strain/Indicator: V-79 (HGPRT)/6-THIOGUANINE, Metabolic Activation: RAT, LIVER, S-9, AROCLOR 1254 inactive; negative
